Data: PubChem BioAssay (NCI)
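Grown in 96-well plates, cells were treated for 48 hours with each compound at five concentrations. Insufficient inhibition: endpoint recorded as highest concentration tested. TGI: total growth inhibition.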

How the values were obtained:
Experiment in all cases: NCI anticancer screen, dose series, 48 h
KM12 colon = system: KM12 colon
SF-539 CNS = system: SF-539 CNS
HCC-2998 colon = system: HCC-2998 colon
U251 CNS = system: U251 CNS
HCT-15 colon = system: HCT-15 colon
MDA-N = system: MDA-N
HOP-62 NSCLC = system: HOP-62 NSCLC
OVCAR-4 ovarian = system: OVCAR-4 ovarian
DU-145 prostate = system: DU-145 prostate
SK-OV-3 ovarian = system: SK-OV-3 ovarian

| Structure (SMILES) | TGI (KM12 colon) [µM] | TGI (SF-539 CNS) [µM] | TGI (HCC-2998 colon) [µM] | TGI (U251 CNS) [µM] | TGI (HCT-15 colon) [µM] | TGI (MDA-N) [µM] | TGI (HOP-62 NSCLC) [µM] | TGI (OVCAR-4 ovarian) [µM] | TGI (DU-145 prostate) [µM] | TGI (SK-OV-3 ovarian) [µM] |
| --- | --- | --- | --- | --- | --- | --- | --- | --- | --- | --- |
| CC[C@@]1(O)C(=O)OCc2c1cc1n(c2=O)Cc2c-1nc1ccccc1c2/C=N\NC(=O)CN | > 100 | 0.127 | > 47.4 | > 61.5 | > 100 | > 100 | 3.73 | > 100 | – | – |
| COc1ccc2c(=O)c(O)c(-c3ccc(OC)c(OC)c3)oc2c1 | – | – | > 100 | > 100 | > 100 | > 100 | 36.1 | 0.599 | > 100 | > 100 |
| C[n+]1c2ccccc2c(/C=N\NS(=O)(=O)c2ccc(O)c(C(=O)O)c2)c2ccccc21 | > 100 | > 100 | > 100 | > 100 | > 100 | – | > 100 | > 100 | – | > 100 |
| CNC(=O)C(C)C1CCC2(C)C=CC(=O)C(C)=C2C1O (configuration not stated) | > 100 | > 100 | > 100 | > 64.9 | > 100 | – | > 100 | > 100 | – | > 100 |
| Cc1ccccc1-n1c(=O)c2ncn(CCCl)c2n(-c2ccccc2C)c1=S | > 100 | > 100 | > 100 | > 100 | > 100 | – | > 100 | > 100 | > 100 | > 100 |
| O=C1c2ccccc2C2C1N2C(=O)C(F)(F)F (configuration not stated) | > 100 | > 100 | – | > 100 | > 100 | – | > 100 | > 100 | – | > 100 |
| CCN(CC)CCC(=O)Nc1ccc2c(c1)C(=O)c1ccc(NC(=O)CCN(CC)CC)cc1C2=O | 4.57 | 15.3 | > 100 | 21.2 | 14.8 | – | 17.6 | 18.9 | – | 21.7 |
| CC(N)Cc1ccc(C(=O)Cl)cc1 (configuration not stated) | > 100 | > 100 | > 100 | > 100 | > 100 | – | > 100 | > 100 | – | > 100 |
| Cc1ccsc1/C=N/Nc1ncccn1 | > 100 | – | > 100 | > 100 | > 100 | > 100 | > 100 | > 100 | > 100 | > 100 |
| O=S1(=O)NC(=NCc2c[nH]c3ccccc23)N(c2ccccc2)c2ccncc21 | > 100 | > 100 | > 100 | > 100 | > 100 | – | > 100 | > 100 | > 100 | > 100 |
| O=C1CCC23CC(C=CC=C12)n1c(=O)n(-c2ccccc2)c(=O)n13 (configuration not stated) | > 100 | > 100 | > 100 | > 100 | > 100 | – | > 100 | > 100 | – | > 100 |
| CNC(=O)OCC1=C(COC(=O)NC)C(C)N(c2ccc(OC)cc2)C1 (configuration not stated) | > 100 | > 100 | – | > 100 | > 100 | – | > 100 | > 100 | > 100 | > 100 |
| O=C(Nc1ccc(C2=NCCN2)cc1)c1cncc(C(=O)Nc2ccc(C3=NCCN3)cc2)c1 | > 100 | > 100 | > 100 | > 100 | > 100 | – | > 100 | > 100 | – | > 100 |
| [N-]=[N+]=Nc1cc(=O)oc2ccccc12 | > 100 | > 100 | – | > 100 | > 100 | – | > 100 | > 100 | – | > 100 |
| CCC12C=CCN3CCC4(C(=C(C(=O)OC)[C@@H]1O)Nc1ccccc14)C32 (some centres not stated) | 3.19 | 4.72 | 3.06 | 5.52 | 3.09 | – | 4.12 | 4.17 | – | 6.2 |
| COc1cc2c(cc1OC)C(c1ccccc1CCCCl)=NCC2 | > 100 | > 100 | > 100 | > 100 | > 100 | – | > 100 | > 100 | > 100 | > 100 |
| Cc1cccc2c(=O)cc(-c3ccccc3)[nH]c12 | – | 37.1 | 18.1 | > 100 | > 100 | – | 42.6 | 35.7 | – | – |
| CC1=C(C)[C@@]2(C)O[C@@]2(C)O[C@@]2(C)O[C@@]12C | > 100 | – | – | > 100 | > 100 | > 100 | > 100 | > 100 | > 100 | > 100 |

| Structure (SMILES) | TGI (KM12 colon) [µM] | TGI (SF-539 CNS) [µM] | TGI (HCC-2998 colon) [µM] | TGI (U251 CNS) [µM] | TGI (HCT-15 colon) [µM] | TGI (MDA-N) [µM] | TGI (HOP-62 NSCLC) [µM] | TGI (OVCAR-4 ovarian) [µM] | TGI (DU-145 prostate) [µM] | TGI (SK-OV-3 ovarian) [µM] |
| --- | --- | --- | --- | --- | --- | --- | --- | --- | --- | --- |
| CCOc1cc2c(cc1O)/C(=N\OC)C[C@@H]1[C@@H]2CC[C@]2(C)[C@@H](O)CC[C@@H]12 | 7.63 | – | 14.4 | 22.8 | 16.1 | 0.031 | 26.4 | > 100 | > 100 | > 100 |
| O=c1[nH][nH]c(=O)n1Cc1ccccc1Cn1c(=O)[nH][nH]c1=O | > 100 | > 100 | – | > 100 | > 100 | > 100 | > 100 | – | > 100 | > 100 |
| CC(=O)Nc1ccc(-c2nnc(SCC(=O)Nc3ccc([N+](=O)[O-])cc3)o2)cc1 | 27.7 | 39.2 | – | 28 | 26 | – | 53.4 | 26.3 | – | 35.9 |
| COc1ccc(CNc2nc(NCc3ccc(OC)c(OC)c3)nc(NC3CCCCC3)n2)cc1 | 17 | 8.46 | – | > 100 | 5.64 | – | – | > 100 | > 100 | > 100 |
| CCCCCCCCCCCOc1ccc(C(=O)C(=O)c2ccc(OCCCCCCCCCCC)c(OCCCCCCCCCCC)c2)cc1OCCCCCCCCCCC | > 100 | > 100 | > 100 | > 100 | > 100 | – | > 100 | > 100 | – | > 100 |
| COC(=O)[C@H](Cc1c[nH]c2ccccc12)NP(=O)(O)OCC1C=CC(n2cc(C)c(=O)[nH]c2=O)O1 (some centres not stated) | > 100 | – | > 100 | > 100 | > 100 | > 100 | > 100 | > 100 | > 100 | – |
| COC(=O)[C@H]1CO[C@@H](C(C)(C)C)N1C(=O)N1C=CC(=O)C[C@@H]1C | > 100 | – | – | > 100 | – | > 100 | > 100 | – | > 100 | > 100 |
| COc1cc([C@@H]2OCC3C(c4ccc5c(c4)OCO5)OCC32)cc(OC)c1OC (some centres not stated) | > 100 | > 100 | > 100 | > 100 | > 100 | – | > 100 | > 100 | – | > 100 |
| COc1cc([C@@H]2c3cc4c(cc3[C@@H](Nc3ccc([N+](=O)[O-])cc3C(=O)c3ccccc3)[C@H]3COC(=O)[C@H]23)OCO4)cc(OC)c1OC | > 100 | 0.502 | > 100 | > 100 | – | – | > 100 | > 100 | > 100 | > 100 |
| c1ccc(N=C2SC3=Nc4cccc5cccc(c45)N3C2=Nc2ccccc2)cc1 | > 100 | – | > 100 | > 100 | > 100 | > 100 | > 100 | – | > 100 | > 100 |
| CCCN=C1CCN(Cc2ccccc2)c2ccccc2N1 | 64.6 | – | – | 43.6 | 51.7 | > 100 | > 100 | > 100 | > 100 | > 100 |
| CNS(=O)(=O)NNS(=O)(=O)c1ccc2ccccc2c1 | > 100 | > 100 | > 100 | > 100 | > 100 | – | > 100 | > 100 | – | > 100 |
| CC1C=C(CCCCCCCCCCCC[C@@H](O)[C@@H]2CC[C@@H]([C@@H]3CC[C@@H](C(O)CCCCCCCCCCCCC4=C[C@H](C)OC4=O)O3)O2)C(=O)O1 (some centres not stated) | > 100 | 52.6 | > 100 | > 100 | > 100 | – | > 100 | – | – | > 100 |
| CC(C)c1ccc(/C=C2/C=C(c3ccc4ccccc4c3)OC2=O)cc1 | > 100 | > 100 | > 100 | > 100 | > 100 | – | > 100 | > 100 | > 100 | > 100 |
| N#CN=C(N(Cc1ccccc1)Cc1ccccc1)N(Cc1ccccc1)Cc1ccccc1 | > 100 | > 100 | > 100 | – | > 100 | – | > 100 | – | – | > 100 |
| CN1CCN([C@H]2C[C@H]3[C@@H]4CC=C5C[C@@H](O)CC[C@]5(C)[C@H]4CC[C@]3(C)C2=O)CC1 | > 100 | > 100 | > 100 | > 100 | > 100 | > 100 | > 100 | > 100 | – | > 100 |
| COC(=O)c1cc2c(n1S(=O)(=O)c1ccc(C)cc1)C(=O)C(=O)c1[nH]cc(C(=O)OCc3ccccc3)c1-2 | 0.563 | 0.311 | 0.634 | 0.809 | 0.256 | – | 0.385 | 0.987 | 0.276 | 2.13 |
